The target of experiment [1] is T1, SMYD3 (Homo sapiens (Human), UniProt Q9H7B4). Description: SMYD3 biochemical assay (SPA, 3H-SAM methylation of MEKK2 protein substrate). To be noted: read-out: SMYD3 Biochem IC50 (μM)*. A digest of the protocol: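 Native full-length human SMYD3 (E. coli-expressed, tags removed) was preincubated with compound for 30 min at room temperature in 25 mM Tris-Cl pH 8.0, 1 mM TCEP, 0.005% BSG, 0.005% Tween 20. Reaction was started with 3H-SAM plus GST-MEKK2, quenched with 100 uM unlabeled SAM, and read by SPA scintillation counting.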
T1 sequence (Q9H7B4 whole entry): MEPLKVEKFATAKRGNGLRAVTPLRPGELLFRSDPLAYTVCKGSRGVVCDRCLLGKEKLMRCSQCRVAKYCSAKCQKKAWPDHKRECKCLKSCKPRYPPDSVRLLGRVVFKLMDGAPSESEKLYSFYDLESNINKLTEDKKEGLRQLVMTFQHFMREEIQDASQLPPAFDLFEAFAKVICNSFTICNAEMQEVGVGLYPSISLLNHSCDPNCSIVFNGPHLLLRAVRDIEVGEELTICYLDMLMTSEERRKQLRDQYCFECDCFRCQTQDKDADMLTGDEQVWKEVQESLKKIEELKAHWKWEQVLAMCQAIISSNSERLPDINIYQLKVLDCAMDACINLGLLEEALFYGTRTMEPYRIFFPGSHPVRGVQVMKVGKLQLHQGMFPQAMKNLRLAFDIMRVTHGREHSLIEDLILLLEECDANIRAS

The target of experiment [2] is T1, SMYD3. Description: SMYD3 cell assay (Trimethyl-MEKK2 In-Cell Western in 293T/17 cells). Type of experiment: cell-based. The settings on record: 293T/17 cells; read-out: SMYD3 Cell IC50 (μM)*. A digest of the protocol:
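In-Cell Western ratio of trimethyl-Lys260 MEKK2 to anti-flag signal; percent inhibition from DMSO and maximum-inhibition controls, IC50 by non-linear regression, triplicates.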

As a reminder, the IC50 is the concentration that gives 50% inhibition. With `O=C(Nc1ccc(S(=O)(=O)N2[C@@H]3CC[C@H]2C[C@@H](NC(=O)c2cc(C4CC4)on2)C3)cc1)c1ccncc1` [compound 431, 5-cyclopropyl-N-((1R,3r,5S)-8-((4-(isonicotinamido)phenyl)sulfonyl)-8-azabicyclo[3.2.1]octan-3-yl)isoxazole-3-carboxamide], the half-inhibitory concentration (IC50) in experiment [1] and in experiment [2] was more than 10 µM in each case.

In the case of `O=C1Cc2cc(S(=O)(=O)N3[C@@H]4CC[C@H]3C[C@@H](NC(=O)c3cc(C5CC5)on3)C4)c(Cl)cc2N1` [compound 432, N-((1R,3r,5S)-8-((6-chloro-2-oxoindolin-5-yl)sulfonyl)-8-azabicyclo[3.2.1]octan-3-yl)-5-cyclopropylisoxazole-3-carboxamide], the values for the IC50 in experiment [1] and in experiment [2] were 6.3 µM and more than 10 µM, respectively.

As to `O=C1Cc2cc(S(=O)(=O)N3[C@@H]4CC[C@H]3C[C@@H](NC(=O)c3cc(C5CC5)on3)C4)ccc2N1` [compound 433, 5-cyclopropyl-N-((1R,3r,5S)-8-((2-oxoindolin-5-yl)sulfonyl)-8-azabicyclo[3.2.1]octan-3-yl)isoxazole-3-carboxamide], the half-inhibitory concentration (IC50) in experiment [1] was 4.19 µM; in experiment [2] it was more than 10 µM.

In the case of `O=C(N[C@H]1C[C@H]2CC[C@@H](C1)N2S(=O)(=O)c1ccc2[nH]c(=O)[nH]c2c1)c1cc(C2CC2)on1` [compound 434, 5-cyclopropyl-N-((1R,3r,5S)-8-((2-oxo-2,3-dihydro-1H-benzo[d]imidazol-5-yl)sulfonyl)-8-azabicyclo[3.2.1]octan-3-yl)isoxazole-3-carboxamide], the results for the half-maximal inhibitory concentration (IC50) in experiment [1] and in experiment [2] were 2.41 µM and more than 10 µM, respectively.

For `O=C(N[C@@H]1C[C@H]2CC[C@@H](C1)N2S(=O)(=O)CCN1CCCC1)c1cc(C2CC2)on1` [compound 435, 5-cyclopropyl-N-((1R,3s,5S)-8-((2-(pyrrolidin-1-yl)ethyl)sulfonyl)-8-azabicyclo[3.2.1]octan-3-yl)isoxazole-3-carboxamide], the concentration for half-maximal inhibition (IC50) is 2 µM in experiment [1] and 5.59 µM in experiment [2].

With `O=C(N[C@H]1CCN(S(=O)(=O)CCN2CCCC2)[C@@H](Cc2ccccc2)C1)c1cc(C2CC2)on1` [compound 437, N-((2S,4S)-2-benzyl-1-((2-(pyrrolidin-1-yl)ethyl)sulfonyl)piperidin-4-yl)-5-cyclopropylisoxazole-3-carboxamide], the IC50 is 1 µM in experiment [1] and 4.62 µM in experiment [2].

For `O=C(N[C@@H]1CCN(S(=O)(=O)CCCN2CCOCC2)[C@@H](Cc2ccccc2)C1)c1cc(C2CC2)on1` [compound 438, N-((2S,4R)-2-benzyl-1-((3-morpholinopropyl)sulfonyl)piperidin-4-yl)-5-cyclopropylisoxazole-3-carboxamide], the IC50 is 9.18 µM in experiment [1] and more than 10 µM in experiment [2].

In the case of `O=C(N[C@@H]1CCN(S(=O)(=O)CCCN2CCOCC2)[C@H](Cc2ccccc2)C1)c1cc(C2CC2)on1` [compound 439, N-((2R,4R)-2-benzyl-1-((3-morpholinopropyl)sulfonyl)piperidin-4-yl)-5-cyclopropylisoxazole-3-carboxamide], the 50% inhibitory concentration (IC50) in experiment [1] and in experiment [2] was more than 10 µM each time.

On to `O=C(N[C@@H]1C[C@H]2CC[C@@H](C1)N2S(=O)(=O)CCN1CCOCC1)c1cc(C2CC2)on1` [compound 440, 5-cyclopropyl-N-((1R,3s,5S)-8-((2-morpholinoethyl)sulfonyl)-8-azabicyclo[3.2.1]octan-3-yl)isoxazole-3-carboxamide], for which the IC50 in experiment [1] and in experiment [2] was more than 10 µM each time.

Turning to `O=C(N[C@H]1C[C@H]2CC[C@@H](C1)N2S(=O)(=O)CCN1CCOCC1)c1cc(C2CC2)on1` [compound 441, 5-cyclopropyl-N-((1R,3r,5S)-8-((2-morpholinoethyl)sulfonyl)-8-azabicyclo[3.2.1]octan-3-yl)isoxazole-3-carboxamide], the half-inhibitory concentration (IC50) in experiment [1] was found to be 1.61 µM; in experiment [2], 3.67 µM.

For `O=C(NC1CC2CCCC(C1)N2S(=O)(=O)CCN1CCCC1)c1cc(C2CC2)on1` (centres unmarked) [compound 442, 5-cyclopropyl-N-(9-((2-(pyrrolidin-1-yl)ethyl)sulfonyl)-9-azabicyclo[3.3.1]nonan-3-yl)isoxazole-3-carboxamide], the IC50 came out at 1.11 µM in experiment [1] and 4.55 µM in experiment [2].

As for `O=C(NC1CC2CCCC(C1)N2S(=O)(=O)CCN1CCOCC1)c1cc(C2CC2)on1` (centres unmarked) [compound 443, 5-cyclopropyl-N-(9-((2-morpholinoethyl)sulfonyl)-9-azabicyclo[3.3.1]nonan-3-yl)isoxazole-3-carboxamide], the IC50 in experiment [1] and in experiment [2] was more than 10 µM in each case.

Take `CNCCCS(=O)(=O)N1CC[C@H](NC(=O)c2cc(C3CC3)on2)C[C@@H]1C` [compound 444, 5-cyclopropyl-N-((2S,4S)-2-methyl-1-((3-(methylamino)propyl)sulfonyl)piperidin-4-yl)isoxazole-3-carboxamide]: the IC50 in experiment [1] came out at 0.0131 µM; in experiment [2], 0.181 µM.

Take `CNc1ccc(S(=O)(=O)N2CC[C@H](NC(=O)c3cc(C4CC4)on3)C[C@@H]2C)cn1` [compound 446, 5-cyclopropyl-N-((2S,4S)-2-methyl-1-((6-(methylamino)pyridin-3-yl)sulfonyl)piperidin-4-yl)isoxazole-3-carboxamide]: the 50% inhibitory concentration (IC50) turned out to be 0.89 µM in experiment [1] and 2.25 µM in experiment [2].

As to `CNc1ccc(S(=O)(=O)N2CC[C@@H](NC(=O)c3cc(C4CC4)on3)C[C@H]2C)cn1` [compound 449, 5-cyclopropyl-N-((2R,4R)-2-methyl-1-((6-(methylamino)pyridin-3-yl)sulfonyl)piperidin-4-yl)isoxazole-3-carboxamide], the concentration for half-maximal inhibition (IC50) in experiment [1] and in experiment [2] was more than 10 µM in each case.

With `CC(C)CNc1ccc(S(=O)(=O)N2CC[C@H](NC(=O)c3cc(C4CC4)on3)C[C@@H]2C)cn1` [compound 450, 5-cyclopropyl-N-((2S,4S)-1-((6-(isobutylamino)pyridin-3-yl)sulfonyl)-2-methylpiperidin-4-yl)isoxazole-3-carboxamide], the IC50 was determined as 1.1 µM in experiment [1] and 3.48 µM in experiment [2].

`CC(C)CNc1ccc(S(=O)(=O)N2CC[C@@H](NC(=O)c3cc(C4CC4)on3)C[C@H]2C)cn1` [compound 453, 5-cyclopropyl-N-((2R,4R)-1-((6-(isobutylamino)pyridin-3-yl)sulfonyl)-2-methylpiperidin-4-yl)isoxazole-3-carboxamide]: the 50% inhibitory concentration (IC50) was 7.19 µM in experiment [1] and more than 10 µM in experiment [2].

For the compound `CC(C)CN(C)c1ccc(S(=O)(=O)N2CC[C@@H](NC(=O)c3cc(C4CC4)on3)C[C@H]2C)cn1` [compound 454, 5-cyclopropyl-N-((2R,4R)-1-((6-(isobutyl(methyl)amino)pyridin-3-yl)sulfonyl)-2-methylpiperidin-4-yl)isoxazole-3-carboxamide], the 50% inhibitory concentration (IC50) in experiment [1] and in experiment [2] was more than 10 µM each time.

Consider `COCCN(C)c1ccc(S(=O)(=O)N2CC[C@@H](NC(=O)c3cc(C4CC4)on3)C[C@H]2C)cn1` [compound 455, 5-cyclopropyl-N-((2R,4R)-1-((6-((2-methoxyethyl)(methyl)amino)pyridin-3-yl)sulfonyl)-2-methylpiperidin-4-yl)isoxazole-3-carboxamide], for which the concentration for half-maximal inhibition (IC50) in experiment [1] and in experiment [2] was more than 10 µM in each case.
